Key:
[1] = target: T1, A2B adenosine receptor (A2BAR) (Homo sapiens, UniProt P29275); assay: reversal at […] of BAY […]-6583-induced cAMP and ERK1/[…] phosphorylation in A549 cells; format: cell-based
T1 construct: gene ADORA2B
T1 sequence (P29275 1-332): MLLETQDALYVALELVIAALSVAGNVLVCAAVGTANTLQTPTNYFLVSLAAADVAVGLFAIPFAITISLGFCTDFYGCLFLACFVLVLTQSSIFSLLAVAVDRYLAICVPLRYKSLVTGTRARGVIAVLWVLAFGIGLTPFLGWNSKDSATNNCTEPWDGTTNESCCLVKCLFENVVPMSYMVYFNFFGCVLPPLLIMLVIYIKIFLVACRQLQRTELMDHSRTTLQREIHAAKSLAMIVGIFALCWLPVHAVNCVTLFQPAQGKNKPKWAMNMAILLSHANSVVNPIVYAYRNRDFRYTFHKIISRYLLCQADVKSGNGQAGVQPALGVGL

[2] = target: T1, A2B adenosine receptor (A2BAR); assay: agonist-induced cAMP production (AlphaLISA) in A549 cells with endogenous receptor; effect reversed by MRS […]; format: cell-based

For `CCCn1c(=O)c2[nH]c(-c3ccc(OCC(=O)Nc4ccc(C(C)=O)cc4)cc3)nc2n(CCC)c1=O` [MRS1706, N-(4-acetylphenyl)-2-[4-(2,3,6,7-tetrahydro-2,6-dioxo-1,3-dipropyl-1H-purin-8-yl)phenoxy]-acetamide], the “reversal at 1 μM of BAY 60-6583-induced cAMP and ERK1/2 phosphorylation in A549” value [1] was “The effects evoked by A2BAR stimulation were almost completely reversed by the A2BAR inverse agonist MRS1706”.
Work on `N#Cc1c(N)nc(SCC(N)=O)c(C#N)c1-c1ccc(OCC2CC2)cc1` [BAY 60-6583, 2-[6-amino-3,5-dicyano-4-[4-(cyclopropylmethoxy)phenyl]pyridin-2-ylsulfanyl] acetamide] yielded an EC50 [2] of 17.2 ± 2.5 nM.

From publication PMC5797802, “The A2B Adenosine Receptor Modulates the Epithelial– Mesenchymal Transition through the Balance of cAMP/PKA and MAPK/ERK Pathway Activation in Human Epithelial Lung Cells” (Frontiers in Pharmacology, 2018)
